This assay deals with human peripheral blood mononuclear cells (PBMCs). The assay is classed as cell-based.

Here are results for two substances from US20070036776A1, “Bacterial signaling molecules that down-regulate pathogenic bacterial virulence properties” (priority 2004, published 2007).

Take “staphylococcal superantigen-like protein 11 [SSL11]”: the “induction of T cell proliferation” value is given as “not able to induce”. As to toxic shock syndrome toxin-1 [TSST-1], the “concentration of maximum stimulation” value amounted to 50 ng/mL and the half maximal proliferation entry is listed as “approximately 500 pg/mL”.
